Laboratory results published in ChEMBL document CHEMBL1147193, “New 5-substituted thiazolo[3,2-b][1,2,4]triazol-6-ones: synthesis and anticancer evaluation” (2007).
Blank lines part the entries; values can stand above or below the compound they belong to.

Tests used:
Assay type in all cases: functional
OVCAR-4 = test: Growth inhibition of human OVCAR4 cells after 48 hrs by SRB protein assay; conditions: OVCAR-4, 48 h; for TGI: read-out: Log TGI (converted)
A498 = test: Growth inhibition of human A498 cells after 48 hrs by SRB protein assay; conditions: A498, 48 h; for TGI: read-out: Log TGI (converted)
NCI-H23 = test: Growth inhibition of human NCI-H23 cells after 48 hrs by SRB protein assay; conditions: NCI-H23, 48 h; for TGI: read-out: Log TGI (converted)
MCF7 = test: Anticancer activity against human MCF7 cells assessed as growth of cells at 100 uM relative to untreated cells
HL-60 = test: Growth inhibition of human HL60 cells after 48 hrs by SRB protein assay; conditions: HL-60, 48 h; for TGI: read-out: Log TGI (converted)
MOLT-4 = test: Growth inhibition of human MOLT4 cells after 48 hrs by SRB protein assay; conditions: MOLT-4, 48 h; for TGI: read-out: Log TGI (converted)
SR = test: Growth inhibition of human SR cells after 48 hrs by SRB protein assay; conditions: for TGI: read-out: Log TGI (converted)
NCI-H322M = test: Growth inhibition of human NCI-H322M cells after 48 hrs by SRB protein assay; conditions: for TGI: read-out: Log TGI (converted)
NCI-H460 = test: Growth inhibition of human NCI-H460 cells after 48 hrs by SRB protein assay; conditions: NCI-H460, 48 h; for TGI: read-out: Log TGI (converted)
COLO 205 = test: Growth inhibition of human COLO205 cells after 48 hrs by SRB protein assay; conditions: COLO 205, 48 h; for TGI: read-out: Log TGI (converted)
HCT-116 = test: Growth inhibition of human HCT116 cells after 48 hrs by SRB protein assay; conditions: HCT-116, 48 h; for TGI: read-out: Log TGI (converted)
HT-29 = test: Growth inhibition of human HT29 cells after 48 hrs by SRB protein assay; conditions: HT-29, 48 h; for TGI: read-out: Log TGI (converted)
SF-539 = test: Growth inhibition of human SF539 cells after 48 hrs by SRB protein assay; conditions: SF-539, 48 h; for TGI: read-out: Log TGI (converted)
SNB-19 = test: Growth inhibition of human SNB19 cells after 48 hrs by SRB protein assay; conditions: SNB-19, 48 h; for TGI: read-out: Log TGI (converted)
SNB-75 = test: Growth inhibition of human SNB75 cells after 48 hrs by SRB protein assay; conditions: SNB-75, 48 h
U-251 = test: Growth inhibition of human U251 cells after 48 hrs by SRB protein assay; conditions: U-251, 48 h; for TGI: read-out: Log TGI (converted)
[1] = Growth inhibition of human MALME 3M cells after 48 hrs by SRB protein assay; conditions: for TGI: read-out: Log TGI (converted)
UACC-257 = test: Growth inhibition of human UACC257 cells after 48 hrs by SRB protein assay; conditions: UACC-257, 48 h; for TGI: read-out: Log TGI (converted)
TK-10 = test: Growth inhibition of human TK10 cells after 48 hrs by SRB protein assay; conditions: TK-10, 48 h; for TGI: read-out: Log TGI (converted)
DU-145 = test: Growth inhibition of human DU145 cells after 48 hrs by SRB protein assay; conditions: DU-145, 48 h; for TGI: read-out: Log TGI (converted)
MDA-MB-435 = test: Growth inhibition of human MDA-MB-435 cells after 48 hrs by SRB protein assay; conditions: MDA-MB-435, 48 h; for TGI: read-out: Log TGI (converted)
HOP-92 = test: Growth inhibition of human HOP92 cells after 48 hrs by SRB protein assay; conditions: HOP-92, 48 h; for TGI: read-out: Log TGI (converted)

- GI50 (OVCAR-4): 17.4 µM
- GI50 (NCI-H23): 17.8 µM
- GI50 (HL-60): 0.537 µM
- GI50 (MOLT-4): 1.62 µM
- GI50 (NCI-H322M): 13.2 µM
- GI50 (NCI-H460): 17.4 µM
- GI50 (COLO 205): 17 µM
- GI50 (HCT-116): 10.7 µM
- GI50 (HT-29): 15.1 µM
- GI50 (U-251): 10.5 µM
- GI50 (DU-145): 12.9 µM
- GI50 (MDA-MB-435): 12.6 µM
SMILES: O=c1/c(=C/c2ccc(Cl)cc2)sc2ncnn12
- TGI (OVCAR-4): 63.1 µM
- GI50 (A498): 19.1 µM
- TGI (A498): 33.1 µM
- TGI (NCI-H23): 38 µM
- Activity (MCF7): 10%
- TGI (HL-60): 2.04 µM
- TGI (MOLT-4): 8.71 µM
- GI50 (SR): 8.32 µM
- TGI (SR): 33.9 µM
- TGI (NCI-H322M): 26.3 µM
- TGI (NCI-H460): 44.7 µM
- TGI (COLO 205): 38.9 µM
- TGI (HCT-116): 25.7 µM
- TGI (HT-29): 58.9 µM
- GI50 (SF-539): 10.2 µM
- TGI (SF-539): 21.9 µM
- GI50 (SNB-19): 16.2 µM
- TGI (SNB-19): 32.4 µM
- GI50 (SNB-75): 14.1 µM
- TGI (SNB-75; read-out: Log TGI (converted)): 32.4 µM
- TGI (U-251): 23.4 µM
- GI50 [1]: 11.2 µM
- TGI [1]: 26.9 µM
- GI50 (UACC-257): 13.5 µM
- TGI (UACC-257): 30.2 µM
- GI50 (TK-10): 16.6 µM
- TGI (TK-10): 31.6 µM
- TGI (DU-145): 32.4 µM
- TGI (MDA-MB-435): 26.9 µM

- GI50 (HL-60): 46.8 µM
- GI50 (MOLT-4): 33.9 µM
- GI50 (NCI-H322M): > 100 µM
- GI50 (NCI-H460): > 100 µM
- GI50 (COLO 205): 21.4 µM
- GI50 (HCT-116): 15.8 µM
- GI50 (HT-29): 43.7 µM
- GI50 (U-251): > 100 µM
- GI50 (MDA-MB-435): > 100 µM
SMILES: CCOC(=O)c1ccc(NC(=O)CC2Sc3ncnn3C2=O)cc1 (centres undefined)
- Activity (MCF7): 0%
- TGI (HL-60): > 100 µM
- TGI (MOLT-4): 66.1 µM
- GI50 (HOP-92): 19.5 µM
- TGI (HOP-92): 47.9 µM
- TGI (NCI-H322M): > 100 µM
- TGI (NCI-H460): > 100 µM
- TGI (COLO 205): 40.7 µM
- TGI (HCT-116): 29.5 µM
- TGI (HT-29): > 100 µM
- GI50 (SNB-19): > 100 µM
- TGI (SNB-19): > 100 µM
- TGI (U-251): > 100 µM
- GI50 (UACC-257): 87.1 µM
- TGI (UACC-257): > 100 µM
- GI50 (TK-10): 22.9 µM
- TGI (TK-10): 55 µM
- TGI (MDA-MB-435): > 100 µM

- GI50 (OVCAR-4): 57.5 µM
- GI50 (NCI-H23): 20 µM
- GI50 (HL-60): 27.5 µM
- GI50 (MOLT-4): 28.8 µM
- GI50 (NCI-H322M): 97.7 µM
- GI50 (NCI-H460): > 100 µM
- GI50 (COLO 205): 30.2 µM
- GI50 (HCT-116): 17 µM
- GI50 (HT-29): 47.9 µM
- GI50 (U-251): 22.4 µM
- GI50 (DU-145): 57.5 µM
- GI50 (MDA-MB-435): 26.3 µM
SMILES: COc1ccc(NC(=O)CC2Sc3ncnn3C2=O)cc1 (centres undefined)
- TGI (OVCAR-4): > 100 µM
- GI50 (A498): 21.4 µM
- TGI (A498): 57.5 µM
- TGI (NCI-H23): 37.2 µM
- Activity (MCF7): 0%
- TGI (HL-60): > 100 µM
- TGI (MOLT-4): 70.8 µM
- GI50 (HOP-92): 21.9 µM
- TGI (HOP-92): 49 µM
- TGI (NCI-H322M): > 100 µM
- TGI (NCI-H460): > 100 µM
- TGI (COLO 205): 79.4 µM
- TGI (HCT-116): 30.9 µM
- TGI (HT-29): > 100 µM
- GI50 (SF-539): 26.9 µM
- TGI (SF-539): 55 µM
- TGI (U-251): 44.7 µM
- GI50 [1]: 17.4 µM
- TGI [1]: 33.9 µM
- GI50 (UACC-257): 20 µM
- TGI (UACC-257): 36.3 µM
- GI50 (TK-10): 16.6 µM
- TGI (TK-10): 30.9 µM
- TGI (DU-145): > 100 µM
- TGI (MDA-MB-435): 70.8 µM

- GI50 (OVCAR-4): 31.6 µM
- GI50 (NCI-H23): 20.9 µM
- GI50 (HL-60): 19.5 µM
- GI50 (MOLT-4): 25.1 µM
- GI50 (NCI-H322M): > 100 µM
- GI50 (NCI-H460): > 100 µM
- GI50 (COLO 205): 17.8 µM
- GI50 (HCT-116): 15.8 µM
- GI50 (HT-29): 28.2 µM
- GI50 (U-251): 16.6 µM
- GI50 (DU-145): 38.9 µM
- GI50 (MDA-MB-435): 31.6 µM
SMILES: O=C(CC1Sc2ncnn2C1=O)Nc1ccc(Br)cc1 (centres undefined)
- TGI (OVCAR-4): > 100 µM
- GI50 (A498): 12.3 µM
- TGI (A498): 57.5 µM
- TGI (NCI-H23): 43.7 µM
- Activity (MCF7): 0%
- TGI (HL-60): > 100 µM
- TGI (MOLT-4): 97.7 µM
- GI50 (SR): 18.2 µM
- TGI (SR): > 100 µM
- GI50 (HOP-92): 22.4 µM
- TGI (HOP-92): 49 µM
- TGI (NCI-H322M): > 100 µM
- TGI (NCI-H460): > 100 µM
- TGI (COLO 205): 37.2 µM
- TGI (HCT-116): 29.5 µM
- TGI (HT-29): > 100 µM
- GI50 (SF-539): 20.9 µM
- TGI (SF-539): 46.8 µM
- TGI (U-251): 31.6 µM
- GI50 [1]: 14.5 µM
- TGI [1]: 31.6 µM
- GI50 (UACC-257): 17.4 µM
- TGI (UACC-257): 33.1 µM
- GI50 (TK-10): 17.4 µM
- TGI (TK-10): 31.6 µM
- TGI (DU-145): > 100 µM
- TGI (MDA-MB-435): > 100 µM
